Laboratory results published in ChEMBL document CHEMBL4152272, “Synthesis and evaluation of novel triazolyl quinoline derivatives as potential antileishmanial agents” (Eur J Med Chem, 2018).
pIC50: −log10 of the molar value. Calls of active or inactive are those of the source. The calls are words filed in the database; no cut-off is given here.

Tests used:
Leishmania donovani [1] = test: Antileishmanial activity against Leishmania donovani MHOM/IN/80/Dd8 promastigotes harboring luciferase reporter gene after 72 hrs by luminescence assay; format: functional, organism-based; details: MHOM/IN/80/Dd8, 72 h
Leishmania donovani [2] = test: Antileishmanial activity against Leishmania donovani MHOM/IN/80/Dd8 amastigotes harboring luciferase reporter gene infected in mouse J774A.1 cells after 72 hrs by luminescence assay; format: functional, organism-based; details: for pIC50: Leishmania donovani, MHOM/IN/80/Dd8, J774.A1, 72 h, read-out: IC50
[3] = Cytotoxicity against mouse J774A.1 cells after 48 hrs by MTT assay; format: cell-based, J774.A1
[4] = Selectivity index, ratio of CC50 for cytotoxicity against mouse J774A.1 cells to IC50 for Leishmania donovani MHOM/IN/80/Dd8 amastigotes harboring luciferase reporter gene infected in mouse J774A.1 cells; format: toxicity, cell-based; details: read-out: Ratio CC50/IC50
Leishmania donovani [5] = test: Antileishmanial activity against Leishmania donovani MHOM/IN/80/Dd8 amastigotes infected in golden hamsters assessed as inhibition of parasite at 50 mg/kg, ip for 5 consecutive days measured on day 7 post last dose by Giemsa staining based assay relative to control; format: functional; details: for inhibition in vivo at 50 mg/kg: MHOM/IN/80/Dd8, ip, 168 h
Leishmania donovani [6] = test: Antileishmanial activity against Leishmania donovani MHOM/IN/80/Dd8 amastigotes infected in golden hamsters assessed as inhibition of parasite at 50 mg/kg, ip for 5 consecutive days measured on day 28 post last dose by Giemsa staining based assay relative to control; format: functional; details: MHOM/IN/80/Dd8, ip, 672 h
Leishmania donovani [7] = test: Antileishmanial activity against Leishmania donovani MHOM/IN/80/Dd8 amastigotes infected in golden hamsters assessed as inhibition of parasite at 20 mg/kg, ip for 5 consecutive days measured on day 7 post last dose by Giemsa staining based assay relative to control; format: functional, organism-based
Leishmania donovani [8] = test: Antileishmanial activity against Leishmania donovani MHOM/IN/80/Dd8 amastigotes infected in golden hamsters assessed as inhibition of parasite at 20 mg/kg, ip for 5 consecutive days measured on day 28 post last dose by Giemsa staining based assay relative to control; format: functional, organism-based

Compound | pIC50 (Leishmania donovani [1]) | IC50 (Leishmania donovani [2]) | pIC50 (Leishmania donovani [2]) | CC50 at 48 h [3] [µM] | selectivity ratio [4] | further results
Cc1ccc(-n2cc(COC(=O)c3c(C)nc4ccc(Cl)cc4c3-c3ccccc3)nn2)cc1 | 5.00 | Not Active | – | – | – | –
Cc1nc2ccccc2c(-c2ccccc2)c1C(=O)OCc1cn(-c2ccc(C(C)C)cc2)nn1 | 5.30 | Not Active | – | – | – | –
COc1cccc(Cn2cc(COC(=O)c3c(C)nc4ccccc4c3-c3ccccc3)nn2)c1 | 4.80 | – | 4.47 | 36 | 1 | –
Cc1ccc(Cn2cc(COC(=O)c3c(C)nc4ccccc4c3-c3ccccc3)nn2)cc1 | 5.40 | – | 4.66 | 41 | 1.81 | –
Cc1nc2ccccc2c(-c2ccccc2)c1C(=O)OCc1cn(Cc2ccc(F)cc2)nn1 | 5.22 | Not Active | – | – | – | –
Cc1ccc(-n2cc(COC(=O)c3c(C)nc4ccc(Cl)cc4c3-c3ccccc3)nn2)cc1F | 5.40 | – | 4.92 | 34 | 2.9 | –
Cc1nc2ccccc2c(-c2ccccc2)c1C(=O)OCc1cn(Cc2ccccc2F)nn1 | 5.40 | Not Active | – | – | – | –
Cc1nc2ccc(Cl)cc2c(-c2ccccc2)c1C(=O)OCc1cn(Cc2ccccc2F)nn1 | 4.62 | Not Active | – | – | – | –
Cc1nc2ccc(Cl)cc2c(-c2ccccc2)c1C(=O)OCc1cn(Cc2ccc([N+](=O)[O-])cc2)nn1 | 5.30 | – | 4.80 | 75 | 4.6 | inhibition in vivo at 50 mg/kg (Leishmania donovani [5]): 6.63%; inhibition in vivo at 50 mg/kg (Leishmania donovani [6]): 22.7%
Cc1nc2ccccc2c(-c2ccccc2)c1C(=O)OCc1cn(-c2ccc(C(C)(C)C)cc2)nn1 | 5.15 | Not Active | – | – | – | –
Cc1ccc(-n2cc(COC(=O)c3c(C)nc4ccccc4c3-c3ccccc3)nn2)cc1F | 5.22 | – | 4.77 | 36 | 2.12 | –
CCc1ccc(-n2cc(COC(=O)c3c(C)nc4ccccc4c3-c3ccccc3)nn2)cc1 | 5.10 | Not Active | – | – | – | –
Cc1ccc(-n2cc(COC(=O)c3c(C)nc4ccccc4c3-c3ccccc3)nn2)cc1 | 4.80 | – | 5.15 | 39 | 5.58 | inhibition (Leishmania donovani [5]): inactive; inhibition in vivo at 50 mg/kg (Leishmania donovani [6]): 40.4%
Cc1nc2ccc(Cl)cc2c(-c2ccccc2)c1C(=O)OCc1cn(-c2ccc(F)cc2)nn1 | 4.77 | Not Active | – | – | – | –
Cc1ccc(Cn2cc(COC(=O)c3c(C)nc4ccc(Cl)cc4c3-c3ccccc3)nn2)cc1 | 4.47 | Not Active | – | – | – | –
Cc1nc2ccccc2c(-c2ccccc2)c1C(=O)OCc1cn(Cc2ccccc2)nn1 | 5.00 | Not Active | – | – | – | –
Cc1nc2ccccc2c(-c2ccccc2)c1C(=O)OCc1cn(Cc2ccccc2C#N)nn1 | 5.00 | Not Active | – | – | – | –
Cc1nc2ccccc2c(-c2ccccc2)c1C(=O)OCc1cn(Cc2ccc([N+](=O)[O-])cc2)nn1 | 5.05 | – | 4.74 | 42 | 2.3 | –
Cc1nc2ccccc2c(-c2ccccc2)c1C(=O)OCc1cn(-c2ccc(F)cc2)nn1 | 4.66 | Not Active | – | – | – | –
Cc1nc2ccc(Cl)cc2c(-c2ccccc2)c1C(=O)OCc1cn(Cc2ccc(F)cc2)nn1 | 5.70 | Not Active | – | – | – | –
Cc1nc2ccc(Cl)cc2c(-c2ccccc2)c1C(=O)OCc1cn(Cc2ccccc2)nn1 | 4.60 | – | 5.15 | 35 | 4.5 | inhibition in vivo at 50 mg/kg (Leishmania donovani [5]): 37.8%; inhibition in vivo at 50 mg/kg (Leishmania donovani [6]): 46.9%
Sodium Stibogluconate | – | – | – | – | – | inhibition (Leishmania donovani [7]): 81.3%; inhibition (Leishmania donovani [8]): 85.3%
Cc1nc2ccc(Cl)cc2c(-c2ccccc2)c1C(=O)OCc1cn(-c2ccc(C(C)C)cc2)nn1 | 5.52 | Not Active | – | – | – | –
COc1cccc(Cn2cc(COC(=O)c3c(C)nc4ccc(Cl)cc4c3-c3ccccc3)nn2)c1 | 5.15 | Not Active | – | – | – | –
CCc1ccc(-n2cc(COC(=O)c3c(C)nc4ccc(Cl)cc4c3-c3ccccc3)nn2)cc1 | 5.30 | – | 4.85 | 99 | 7 | inhibition in vivo at 50 mg/kg (Leishmania donovani [5]): 9.76%; inhibition in vivo at 50 mg/kg (Leishmania donovani [6]): 17.3%
CCCCCCCCCCCCCCCCOP(=O)([O-])OCC[N+](C)(C)C [MILTEFOSINE] | 6.00 | – | 5.10 | 56 | 6.72 | –
Cc1nc2ccc(Cl)cc2c(-c2ccccc2)c1C(=O)OCc1cn(-c2ccc(C(C)(C)C)cc2)nn1 | 4.35 | Not Active | – | – | – | –
